Usually IC50 stands for the point on the concentration scale where inhibition reaches its midpoint.

Molecules are shown by their SMILES. “Also recorded” adds a separate entry of the source. Where two headings read alike, the source gives them in different places.

Test [1] deals with HaCaT (human keratinocyte cell line). Description: Cytotoxicity MTT assay, HaCaT. Type of test: cell-based. As for the experimental part:
(§1) This test is based on the reduction of 3-(4,5-dimethyl-2-thiazolyl)-2,5-diphenyl-2-tetrazole bromide by viable cells, with formation of violet insoluble formazan crystals. Five cell lines were used in order to evaluate the cytotoxic effect of the compounds as a whole.
(§2) The cytotoxicity of compounds 4, 16, 28 and copper oxychloride was determined by MTT assay. The cell lines used were HaCaT (human keratinocyte cell line—CLS 300493), Huh-7.5 (human hepatoma cell line—ATCC® PTA-8561), MRC-5 (human lung fibroblast cell line—ATCC CCL-171), VERO (monkey kidney epithelial cell line—ATCC® CCL81) and ACHN (human renal adenocarcinoma cell line—ATCC® CRL1611). The cells were cultured in appropriate medium recommended by the American Type Culture Collection.
(§3) The assay was performed with the concentration of 10^4 cells for both cell lines, distributed in 96-well plates and incubated at 37 °C in a 5% CO2 controlled atmosphere oven for 24 h. After the incubation period, the cells were treated with the compounds with a range of 1.56–200 μmol L^−1 and incubated for 24 h. The supernatant was removed, then 100 μL of 3-(4,5-dimethyl-2-thiazolyl)-2,5-diphenyl-2H-tetrazolium (MTT) salt at 1 mg mL^−1 diluted in DMEM medium (Gibco Life Technologies, Gaithersburg, MD, USA) was added and incubated for 30 min. Subsequently, the MTT was removed, then 100 μL of DMSO under agitation for 5 min at 60 rpm was added. The plates were read at 570 nm in a FLUOstar Omega/BMG LABTECH plate reader, Offenburg, BW, DE. We carried out the experiments in triplicate and three independent events for statistical analysis (GraphPad Software, San Diego, CA, USA). The MTT assay is based on the tetrazolium salt (yellow-colored) reduction to formazan (purple-colored) by metabolically active cells.

The subject of test [2] is Xanthomonas citri subsp. citri. Description: Growth curve of Xcc (OD 600 nm). Type of test: cell-based. Conditions: MIC and ½ MIC, 72 h. As for the experimental part:
According to the growth curves of the positive control (PC) and vehicle control (DMSO), it was observed that Xcc reaches the maximum growth phase in a period of 15 h. […] The early growth inhibition (lag phase), which happens in the first hours of contact (period of the first cellular divisions) can be a dynamic process. […] This can be explained because the compounds have bacteriostatic action; that is, as the time passes, the cells become able to recover and restart doubling. Another important finding is that the lag phase consists in the cell adaptation to the new medium conditions and the bacterial population is smaller in relation to the exponential phase facilitates the action of the compounds in the first hours (Figure 1).
An isolated colony of Xanthomonas citri subsp. citri was inoculated in NYG medium for 12 h at 29 °C. After this, the optical density (OD 600 nm) was measured and adjusted to ~0.1. […] Optical density reading was measured on a Synergy H1-BioTek plate reader every 30 min for 72 h. The growth curves were plotted with GraphPad Prism software. At the same time, the degradation assay was performed, solubilizing the compounds in DMSO, which were later incorporated in NYG medium. Later, we scanned the compounds to measure the absorbance values from 210 to 700 nm, and the maximum lambda value of each compound was selected after scanning. After that, punctual readings were carried out every 30 min for 72 h.

The subject of test [3] is Huh-7.5 (human hepatoma cell line). Description: Cytotoxicity MTT assay, Huh-7.5. Type of test: cell-based. As for the experimental part: as §1, §2, §3
Another test has as its system FtsZ from Xcc. Briefly: Inhibition of GTPase activity, continuous substrate regeneration assay. Type of test: biochemical, Xanthomonas citri subsp. citri. Conditions: compounds at MIC values, Xcc-FtsZ 5 μM, 400 μM GTP. As for the experimental part:
The cell division process is mediated by the formation of the Z ring, coordinated by GTP hydrolysis activity of FtsZ [33, 34, 35].
The evaluation of the inhibition of GTPase activity was measured by the characterization of the FtsZ from Xcc. This methodology is known as continuous assay of substrate regeneration and consists of the hydrolysis of guanosine triphosphate (GTP) in guanosine diphosphate (GDP) and inorganic phosphate. The GTP is regenerated by the enzyme pyruvate kinase which, in turn, converts the phosphoenol pyruvate (PEP) to pyruvate. The pyruvate produced by this reaction is reduced to lactate by lactate dehydrogenase, using NADH [64].
Reagent stocks were dispersed in Tris 50 buffer (1:1 tris:KCl at pH 7.9). We also prepared two mixtures: Mixture 1—magnesium chloride (MgCl2), pyruvate kinase/lactate dehydrogenase, phosphoenol-pyruvate, NADH and GTP, adding or not the test compounds to MIC values; and mixture 2—Xcc-FtsZ. The assay was performed in a 96-well plate, 75 μL of mixture 1 was pipetted into a well and incubated for 5 min at 30 °C; then 75 μL of mixture 2 was added and the readings started. A Biotek Synergy MX plate reader was used. The readings were performed every 5 s, at the wavelength of 340 nm at 30 °C, under constant stirring.
The total volume of 150 μL presented the following concentrations: 5 mM MgCl2; pyruvate kinase/lactate dehydrogenase 20 U mL^−1; 2 mM phosphoenol-pyruvate; 1 mM NADH; 400 μM GTP; Xcc-FtsZ 5 μM.

For test [4], the system named is VERO (monkey kidney epithelial cell line). Description: Cytotoxicity MTT assay, VERO. Type of test: cell-based. As for the experimental part: as §1, §2, §3
For orientation: Tetrazolium assays rely on reduction of a dye to a coloured formazan, in cell work by metabolically active cells.

Setting [5] is: Homo sapiens, HaCaT, 24 h, read-out: IC50 HaCaT, MTT, 24 h treatment.
[6] abbreviates: MTT, 24 h treatment, read-out: IC50 HaCaT.
Setting [7] is: Homo sapiens, Huh7.5, 24 h, read-out: IC50 Huh-7,5, MTT, 24 h treatment.
The mark [8] stands for this setting: MTT, 24 h treatment, read-out: IC50 Huh-7,5.
Setting [9] is: Primates, Vero, 24 h, MTT, 24 h treatment, read-out: IC50 VERO.

Turning to `CCCCCCCOC(=O)c1ccc(O)cc1O` [Compound 4], the half-maximal inhibitory concentration (IC50) in test [1] (setting [5]) is about 70 µM; in test [1] (setting [6]), 64.9 ± 8.91 µM; in test [3] (setting [7]) it was about 70 µM; in test [3] (setting [8]), 70.6 ± 5.52 µM; in test [4] (MTT, 24 h treatment, read-out: IC50 VERO), 111 ± 8.34 µM; in test [4] (Primates, Vero, 24 h, read-out: IC50 VERO, MTT, 24 h treatment), over 100 µM. In addition, the “effect on Xcc growth curve” value in test [2] is “delay in the exponential phase”. Besides, the “effect on GTPase activity of FtsZ” value with FtsZ from Xcc is listed as “inhibition of FtsZ GTPase activity; also recorded: decay in the GTPase activity of FtsZ”.
For `CCCCCCCOC(=O)c1cc(O)ccc1O` [Compound 16], the IC50 was about 70 µM in test [1] (setting [5]); 69.8 ± 4.87 µM in test [1] (setting [6]); 20.6 ± 0.23 µM in test [3] (Homo sapiens, Huh7.5, 24 h, MTT, 24 h treatment, read-out: IC50 Huh-7,5); 93.5 ± 1.93 µM in test [4] (setting [9]). In test [2], the “effect on Xcc growth curve” value was “delay in the exponential phase”. In the test on FtsZ from Xcc, the “effect on GTPase activity of FtsZ” value is on record as “inhibition of FtsZ GTPase activity; also recorded: decay in the GTPase activity of FtsZ”.
`CCCCCCCOC(=O)c1ccc(O)c(O)c1` [Compound 28]: the 50% inhibitory concentration (IC50) in test [1] (setting [5]) is about 70 µM; in test [1] (setting [6]), 74 ± 11.7 µM; in test [3] (setting [7]), about 70 µM; in test [3] (setting [8]) it was 64.8 ± 14.9 µM; in test [4] (setting [9]), 92.3 ± 9.34 µM. Besides, the “effect on Xcc growth curve” value in test [2] is recorded as “delay in the exponential phase”. Moreover, the “effect on GTPase activity of FtsZ” value in the test on FtsZ from Xcc is “inhibition of FtsZ GTPase activity; also recorded: decay in the GTPase activity of FtsZ”.

Source of the values: paper PMC6213047, “Design of Antibacterial Agents: Alkyl Dihydroxybenzoates against Xanthomonas citri subsp. citri” (International Journal of Molecular Sciences, 2018).
